Measured values as given in patent publication EP4745118A1, “HYDROXAMIC ACID COMPOUND OR PHARMACEUTICALLY ACCEPTABLE SALT THEREOF, AND USE THEREOF AND PREPARATION METHOD THEREFOR” (priority 2023, dated 2025).

Key:
Escherichia coli = assay: In vitro antibacterial activity, agar dilution method (MIC); format: cell-based; conditions: agar dilution, 35°C, 18 hours
Method: (§1) According to the relevant operating procedures of the Clinical Laboratory Standards Institute (CLSI) in the United States, an antimicrobial susceptibility testing was conducted using the agar dilution method. […]. The agar was allowed to solidify and set aside for later use.
(§2) The test bacteria were propagated in broth and adjusted to a turbidity of 0.5 McFarland (approximately 1-2 × 10^8 CFU/mL) using a turbidimeter before inoculation. The 0.5 McFarland bacterial solution was then diluted 10-fold in broth (approximately 1-2 × 10^7 CFU/mL). A multipoint inoculator was used to inoculate the above bacterial solution onto a series of plates containing different concentrations of drugs (with an inoculation amount of approximately 10^4 CFU per inoculation site). After incubation at a constant temperature of 35°C for 18 hours, results were observed. The minimum concentration of drugs contained in sterile growth plates was determined as the Minimal Inhibitory Concentration (MIC).

Proteus vulgaris = assay: as above; format: cell-based; conditions: Proteus vulgaris ATCC 29905; agar dilution, 35°C, 18 hours
Method: as §1, §2

Citrobacter freundii = assay: as above; format: cell-based; conditions: Citrobacter freundii ATCC 43864; agar dilution, 35°C, 18 hours
Method: as §1, §2

Serratia marcescens = assay: as above; format: cell-based; conditions: Serratia marcescens ATCC 21074; agar dilution, 35°C, 18 hours
Method: as §1, §2

Pantoea agglomerans = assay: as above; format: cell-based; conditions: Pantoea agglomerans ATCC 27993; agar dilution, 35°C, 18 hours
Method: as §1, §2

Pseudomonas aeruginosa = assay: as above; format: cell-based; conditions: Pseudomonas aeruginosa PAO1; agar dilution, 35°C, 18 hours
Method: as §1, §2

Proteus mirabilis = assay: as above; format: cell-based; conditions: Proteus mirabilis ATCC 49565; agar dilution, 35°C, 18 hours
Method: as §1, §2

Klebsiella pneumoniae = assay: as above; format: cell-based; conditions: agar dilution, 35°C, 18 hours
Method: as §1, §2

Enterobacter aerogenes = assay: as above; format: cell-based; conditions: Enterobacter aerogenes ATCC 13048; agar dilution, 35°C, 18 hours
Method: as §1, §2

[1] = system: Escherichia coli ATCC BAA2469 (CRE, NDM-1-producing); assay: In vivo antibacterial activity, intraperitoneal infection in mice (survival over 7 days); conditions: for Animal survival rate / Number of surviving animals: mice, one intravenous administration 1 hour post-infection, 7 days; for Number of surviving animals: 5 animals per group
Method: Mice were randomly grouped based on body weight, with 5 mice in each group, regardless of gender. The infectious bacteria was Escherichia coli ATCC BAA2469 (CRE, NDM-1-producing). The test bacterial solution was diluted with 5% high-activity dry yeast. Mice received intraperitoneal injection of 0.5 mL of 100% minimum lethal dose (100% MLD) bacterial solution. One intravenous administration was given at 1 hour post-infection at a dose volume of 10 mL/kg. Animal survival numbers were observed over 7 days, and survival rates were calculated.

Shigella flexneri = assay: In vitro antibacterial activity, agar dilution method (MIC); format: cell-based; conditions: Shigella flexneri ATCC 12022, 35°C, 18 hours
Method: According to the relevant operating procedures of the Clinical Laboratory Standards Institute (CLSI) in the United States, an antimicrobial susceptibility testing was conducted using the agar dilution method. A 1920 µg/mL stock solution was serially diluted twofold with sterile water to obtain dilutions of 960, 480, 240, 120, 60, 30, 15, 7.5, 3.75, 1.88, 0.94, 0.47 µg/mL, and 1 mL of the dilution was taken respectively from the dilutions with different concentrations and added to a Petri dish, to which 14 mL of melted MH agar medium was added and mixed thoroughly, and the final concentration of the drug in the petri dish is 128, 64, 32, 16, 8, 4, 2, 1, 0.5, 0.25, 0.12, 0.06, and 0.03 µ g/mL, respectively. The agar was allowed to solidify and set aside for later use.
as §2

Enterobacter cloacae = assay: as above; format: cell-based; conditions: Enterobacter cloacae CDC1000654 (NDM-1-producing); agar dilution, 35°C, 18 hours
Method: According to the relevant operating procedures of the Clinical Laboratory Standards Institute (CLSI) in the United States, an antimicrobial susceptibility testing was conducted using the agar dilution method. […] The agar was allowed to solidify and set aside for later use.
as §2

Colistin
MIC (Escherichia coli; Escherichia coli 13-43 (mcr-1)): 16 µg/mL
MIC (Escherichia coli; Escherichia coli 17-R28 (CRE, NDM-1-producing)): 0.5 µg/mL
MIC (Escherichia coli; Escherichia coli ATCC 2469 (CRE, NDM-1-producing)): 0.5 µg/mL
MIC (Escherichia coli; Escherichia coli ATCC 35218 (ESBLs-producing)): 0.5 µg/mL
MIC (Proteus vulgaris): >128 µg/mL
MIC (Citrobacter freundii): 0.5 µg/mL
MIC (Serratia marcescens): >128 µg/mL
MIC (Pantoea agglomerans): 0.5 µg/mL
MIC (Pseudomonas aeruginosa): 2 µg/mL
MIC (Proteus mirabilis): >128 µg/mL
MIC (Klebsiella pneumoniae; Klebsiella pneumoniae 09-20 (mcr-1)): 16 µg/mL
MIC (Klebsiella pneumoniae; Klebsiella pneumoniae 17-R27 (CRE)): 16 µg/mL
MIC (Klebsiella pneumoniae; Klebsiella pneumoniae 18-8 (ESBLs-producing)): 0.5 µg/mL
MIC (Klebsiella pneumoniae; Klebsiella pneumoniae ATCC 700603 (ESBLs-producing)): 0.5 µg/mL
MIC (Klebsiella pneumoniae; Klebsiella pneumoniae ATCC BAA-2146 (CRE, NDM-1-producing)): 1 µg/mL
MIC (Enterobacter aerogenes): 0.5 µg/mL
effective dose of in vivo antibacterial activity ([1]; mice with intraperitoneal infection by Escherichia coli ATCC BAA2469, intravenous): below 1.5 mg/kg
Animal survival rate ([1]; dose 0.35 mg/kg): 0%
Number of surviving animals ([1]; dose 0.35 mg/kg): 0 individuals
Animal survival rate ([1]; dose 0.7 mg/kg): 20%
Number of surviving animals ([1]; dose 0.7 mg/kg): 1 individuals
Animal survival rate ([1]; dose 1.4 mg/kg): 80%
Number of surviving animals ([1]; dose 1.4 mg/kg): 4 individuals
MIC (Shigella flexneri): 0.5 µg/mL
MIC (Enterobacter cloacae): 0.5 µg/mL
